This experiment concerns T47D (PIK3CA H1047R) cells. Kind of experiment: pS473 AKT assay with 2.5% FBS, T47D cells. The following applies: Homo sapiens, pSer473 AKT, DMEM with 2.5% FBS, 2 h treatment, read-out: T47D_IC50. The format is cell-based. The method in brief:
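In-cell chemiluminescent ELISA of AKT Ser473 phosphorylation, using anti-pSer473 primary and HRP secondary antibodies on fixed cells. T47D (PIK3CA H1047R) cells had 2 h of compound treatment in DMEM containing 2.5% FBS; IC50 derived from dose-response.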

For the compound `CCn1c(=O)c2cc(C)cc(C(C)Nc3ccc(Cl)nc3-c3ncn(C)n3)c2c2cnn(C3CCN(CC(C)(C)O)C3)c21` (stereo not shown) [Compound 146, 9-(1-((6-chloro-2-(1-methyl-1H-1,2,4-triazol-3-yl)pyridin-3-yl)amino)ethyl)-4-ethyl-3-(1-(2-hydroxy-2-methylpropyl)pyrrolidin-3-yl)-7-methyl-3,4-dihydro-5H-pyrazolo[3,4-c]isoquinolin-5-one], the IC50 is below 1000 nM.

In the case of `CCn1c(=O)c2cc(C)cc(C(C)Nc3ccc(Cl)nc3-c3ncn(C)n3)c2c2cnn(C3CCN(C(C)C)C3)c21` (stereo not shown) [Compound 147, 9-(1-((6-chloro-2-(1-methyl-1H-1,2,4-triazol-3-yl)pyridin-3-yl)amino)ethyl)-4-ethyl-3-(1-isopropylpyrrolidin-3-yl)-7-methyl-3,4-dihydro-5H-pyrazolo[3,4-c]isoquinolin-5-one], the IC50 was below 1000 nM.

`CCn1c(=O)c2cc(C)cc(C(C)Nc3ccc(Cl)nc3-c3ncn(C)n3)c2c2cnn(C3CCN(S(C)(=O)=O)C3)c21` (stereo not shown) [Compound 148, 9-(1-((6-Chloro-2-(1-methyl-1H-1,2,4-triazol-3-yl)pyridin-3-yl)amino)ethyl)-4-ethyl-7-methyl-3-(1-(methylsulfonyl)pyrrolidin-3-yl)-3,4-dihydro-5H-pyrazolo[3,4-c]isoquinolin-5-one]: the IC50 is below 1000 nM.

In the case of `CCn1c(=O)c2cc(C)cc(C(C)Nc3ccc(Cl)nc3-c3ncn(C)n3)c2c2cnn(C3CCN(C(C)=O)C3)c21` (stereo not shown) [Compound 149, 3-(1-acetylpyrrolidin-3-yl)-9-(1-((6-chloro-2-(1-methyl-1H-1,2,4-triazol-3-yl)pyridin-3-yl)amino)ethyl)-4-ethyl-7-methyl-3,4-dihydro-5H-pyrazolo[3,4-c]isoquinolin-5-one], the IC50 was below 1000 nM.

As to `CCn1c(=O)c2cc(C)cc(C(C)Nc3ccc(Cl)nc3-c3ncn(C)n3)c2c2cnn(C3CCN(C(=O)OC)C3)c21` (stereo not shown) [Compound 150, methyl 3-(9-(1-((6-chloro-2-(1-methyl-1H-1,2,4-triazol-3-yl)pyridin-3-yl)amino)ethyl)-4-ethyl-7-methyl-5-oxo-4,5-dihydro-3H-pyrazolo[3,4-c]isoquinolin-3-yl)pyrrolidine-1-carboxylate], the IC50 is below 1000 nM.

In the case of `Cc1cc(C(C)Nc2ccc(Cl)nc2-c2ccncc2F)c2c(c1)c(=O)n(C)c1c2cnn1C1CCN(C(=O)N(C)C)C1` (stereo not shown) [Compound 151, 3-(9-(1-((6-chloro-3′-fluoro-[2,4′-bipyridin]-3-yl)amino)ethyl)-4,7-dimethyl-5-oxo-4,5-dihydro-3H-pyrazolo[3,4-c]isoquinolin-3-yl)-N,N-dimethylpyrrolidine-1-carboxamide], the IC50 was below 1000 nM.

Consider `[2H]C([2H])([2H])n1c(=O)c2cc(C)cc(C(C)Nc3ccc(Cl)nc3-c3cnn(C)c3)c2c2cnn(C3CCN(CCC#N)C3)c21` (stereo not shown) [Compound 152, 3-(3-(9-(1-((6-Chloro-2-(1-methyl-1H-pyrazol-4-yl)pyridin-3-yl)amino)ethyl)-7-methyl-4-(methyl-d3)-5-oxo-4,5-dihydro-3H-pyrazolo[3,4-c]isoquinolin-3-yl)pyrrolidin-1-yl)propanenitrile], for which the IC50 was below 1000 nM.

Turning to `[2H]C([2H])([2H])n1c(=O)c2cc(C)cc(C(C)Nc3ccc(Cl)nc3-c3nnn(C)n3)c2c2cnn(C3CCN(CCC#N)C3)c21` (stereo not shown) [Compound 153, 3-(3-(9-(1-((6-chloro-2-(2-methyl-2H-tetrazol-5-yl)pyridin-3-yl)amino)ethyl)-7-methyl-4-(methyl-d3)-5-oxo-4,5-dihydro-3H-pyrazolo[3,4-c]isoquinolin-3-yl)pyrrolidin-1-yl)propanenitrile], the IC50 was below 1000 nM.

Turning to `[2H]C([2H])([2H])n1c(=O)c2cc(C)cc(C(C)Nc3ccc(Cl)nc3-c3cnn(C)c3)c2c2cnn(C3CCN(C(=O)CO)C3)c21` (stereo not shown) [Compound 154, 9-(1-((6-Chloro-2-(1-methyl-1H-pyrazol-4-yl)pyridin-3-yl)amino)ethyl)-3-(1-(2-hydroxyacetyl)pyrrolidin-3-yl)-7-methyl-4-(methyl-d3)-3,4-dihydro-5H-pyrazolo[3,4-c]isoquinolin-5-one], the IC50 is below 1000 nM.

`[2H]C([2H])([2H])n1c(=O)c2cc(C)cc(C(C)Nc3ccc(Cl)nc3-c3cnn(C)c3)c2c2cnn(C3CCN(C(=O)CN(C)C)C3)c21` (stereo not shown) [Compound 155, 9-(1-((6-chloro-2-(1-methyl-1H-pyrazol-4-yl)pyridin-3-yl)amino)ethyl)-3-(1-(dimethylglycyl)pyrrolidin-3-yl)-7-methyl-4-(methyl-d3)-3,4-dihydro-5H-pyrazolo[3,4-c]isoquinolin-5-one]: the IC50 is below 1000 nM.

Turning to `[2H]C([2H])([2H])n1c(=O)c2cc(C)cc(C(C)Nc3ccc(Cl)nc3-c3cnn(C)c3)c2c2cnn(C3CCN(C(=O)c4ccnn4C)C3)c21` (stereo not shown) [Compound 156, 9-(1-((6-chloro-2-(1-methyl-1H-pyrazol-4-yl)pyridin-3-yl)amino)ethyl)-7-methyl-4-(methyl-d3)-3-(1-(1-methyl-1H-pyrazole-5-carbonyl)pyrrolidin-3-yl)-3,4-dihydro-5H-pyrazolo[3,4-c]isoquinolin-5-one], the IC50 was below 1000 nM.

For the compound `[2H]C([2H])([2H])n1c(=O)c2cc(C)cc(C(C)Nc3ccc(Cl)nc3-c3cnn(C)c3)c2c2cnn(C3CCN(C(=O)C4(C#N)CC4)C3)c21` (stereo not shown) [Compound 157, 1-(3-(9-(1-((6-chloro-2-(1-methyl-1H-pyrazol-4-yl)pyridin-3-yl)amino)ethyl)-7-methyl-4-(methyl-d3)-5-oxo-4,5-dihydro-3H-pyrazolo[3,4-c]isoquinolin-3-yl)pyrrolidine-1-carbonyl)cyclopropane-1-carbonitrile], the IC50 is below 1000 nM.

In the case of `Cc1cc(C(C)Nc2ccc(Cl)nc2-c2cnn(C)c2)c2c(c1)c(=O)n(C)c1c2cnn1C1CCN(C)CC1` (stereo not shown) [Compound 158, 9-(1-((6-Chloro-2-(1-methyl-1H-pyrazol-4-yl)pyridin-3-yl)amino)ethyl)-4,7-dimethyl-3-(1-methylpiperidin-4-yl)-3,4-dihydro-5H-pyrazolo[3,4-c]isoquinolin-5-one], the IC50 was below 1000 nM.

With `Cc1cc(C(C)Nc2ccc(Cl)nc2-c2ncn(C)n2)c2c(c1)c(=O)n(C)c1c2cnn1C1CCN(C)CC1` (stereo not shown) [Compound 159, 9-[1-[[6-chloro-2-(1-methyl-1,2,4-triazol-3-yl)-3-pyridyl]amino]ethyl]-4,7-dimethyl-3-(1-methyl-4-piperidyl)pyrazolo[3,4-c]isoquinolin-5-one], the IC50 is below 1000 nM.

On to `CCn1cc(-c2nc(Cl)ccc2NC(C)c2cc(C)cc3c(=O)n(C)c4c(cnn4C4CCN(C)CC4)c23)cn1` (stereo not shown) [Compound 160, 9-[1-[[6-chloro-2-(1-ethylpyrazol-4-yl)-3-pyridyl]amino]ethyl]-4,7-dimethyl-3-(1-methyl-4-piperidyl)pyrazolo[3,4-c]isoquinolin-5-one], for which the IC50 was below 1000 nM.

Take `Cc1cc(C(C)Nc2ccc(Cl)nc2-c2nnn(C)n2)c2c(c1)c(=O)n(C)c1c2cnn1C1CCN(C)CC1` (stereo not shown) [Compound 161, 9-[1-[[6-chloro-2-(2-methyltetrazol-5-yl)-3-pyridyl]amino]ethyl]-4,7-dimethyl-3-(1-methyl-4-piperidyl)pyrazolo[3,4-c]isoquinolin-5-one]: the IC50 is below 1000 nM.

For the origin of these results see patent publication US20250270213A1, “PI3Ka INHIBITORS” (Synnovation Therapeutics, Inc., priority 2022, published 2025).
